Measurements: US20240189242A1, “LIPID NANOPARTICLE COMPOSITIONS AND METHODS OF FORMULATING THE SAME” (MODERNATX, INC., priority 2021, published 2024)
Blank lines part the entries; values can stand above or below the compound they belong to.

Legend:
Format in all cases: physicochemical
RNA [1] = assay: percentage of IG in binary mixtures of RNA and ionizable lipid, ion pair reversed phase HPLC; details: for levels of IG: binary mixtures of RNA and Compound III with 1 mM agent, versus control; for initial rate of IG formation: Compound III binaries with 5 mM agent (FIG. 15)
Description: To detect and quantify the amount of IG present in LNP formulations comprising polynucleotides and lipid, a protocol was developed (FIG. 2) that included (1) extraction of the polynucleotide molecules (e.g. precipitation, liquid:liquid extraction); (2) assessment of integrity (e.g. purity, length) of the isolated polynucleotides by known methods (e.g. fragment analyzer, gel electrophoresis); and (3) analysis of the isolated polynucleotides by HPLC.
(§1) RNA was extracted from the LNP formulation by precipitation in ammonium acetate in isopropanol; resuspended in water to target a final RNA concentration of 0.1 mg/mL; and assessed by fragment analyzer capillary electrophoresis and ion pair reversed phase HPLC (performed on a Thermo DNApac RP 100×2.1 mm column at 65° C., with mobile phases containing 50 mM dibutylammonium acetate and 100 mM triethylammonium acetate in water and acetonitrile). Elution with an acetonitrile gradient provided an RNA separation primarily driven by mRNA length and sensitive to any added hydrophobic elements. Two prominent peaks were apparent on the HPLC chromatogram (FIG. 2), including a “main peak” comprising non-adduct mRNA and an “IG” peak comprising mRNA with one or more covalent modifications. The mass fraction of RNA containing at least one lipid adduct was determined by integrating the area under the curve (AUC) of all RNA peaks (including products shorter than the full-length product, the full-length product, and the hydrophobic modified RNA) and taking the late-eluting region as an area percent of the total peak area.
Compound III was dissolved in ethanol at a concentration of 4 mg/mL, and the RNA diluted in sodium acetate buffer pH 5.5; the RNA and lipids were then mixed in 25% ethanol. Samples were held at 25° C., and the RNA was periodically extracted by precipitation in isopropanol and analyzed by ion pair reversed phase (FIGS. 5 and 6A, data marked by *).

RNA [2] = assay: as above
RNA [3] = assay: percentage of IG in LNPs buffered with PBS or Tris, HPLC
Procedure: as §1
To determine if different buffering conditions confer reductions in the percentage of IG formed in binary mixtures of RNA and Compound III, binary mixtures were prepared with RNA and Compound III and buffered with PBS or Tris at and the percentage of IG in the resulting binary mixtures was quantified according to the protocol detailed in Example 1. In brief, a single batch of LNPs was split mid-process into four aliquots, two of which were prepared in a final buffer of 1×PBS and the other two of which were prepared in a final buffer of 100 mM Tris-HCl pH 7.4. […]
To determine if different buffering conditions confer reductions in the percentage of IG formed in binary mixtures of RNA and Compound VI, binary mixtures were prepared with RNA and Compound VI and buffered PBS or Tris at and the percentage of IG in the resulting binary mixtures was quantified according to the protocol detailed in Example 1.

levels of IG (RNA [1]; 25° C., after 18 hours): reduced levels of IG
SMILES: NCCSSCCN [cystamine]

SMILES: O=S([O-])S(=O)(=O)[O-].[K+].[K+] [potassium metabisulfite]
initial rate of IG formation (RNA [1]): effective at eliminating the fast initial rate of IG formation | levels of IG (RNA [1]; 25° C., after 18 hours): reduced levels of IG

percentage of IG over time (RNA [2]; binary mixtures with RNA): increased over time | IG (RNA [2]; control binary mixtures of RNA and Compound III (Example 5), after 0 days): ~10% | IG (RNA [2]; control binary mixtures of RNA and Compound III (Example 5), after 5 days): ~40% | IG (RNA [2]; control binary mixtures of RNA and Compound III (Example 5), after 25 days): ~45% | IG (RNA [2]; control binary mixtures of RNA and Compound III (Example 6), 25° C., after 1 day): ~15% | IG (RNA [2]; control binary mixtures of RNA and Compound III (Example 6), 25° C., after 7 days): ~40% | IG detected (RNA [2]; control binary mixtures of RNA and Compound III (Example 7), 25° C., after 18 hours): ~35% | IG detected (RNA [2]; control binary mixtures of RNA and Compound III, after 13 days of incubation at 25° C.): ~45% | IG formation over time (RNA [1]; chromatographically purified Compound III (up to 99% purity, no detectable Compound III-N-oxide) and RNA): still formed IG over time | IG (RNA [1]; control binary mixtures of RNA and Compound III (Example 6), 25° C., after 3 days): ~35% | IG detected (RNA [1]; control binary mixtures of RNA and Compound III (Example 11), 25° C., after 18 hours): ~20% | percentage of IG over time (RNA [3]; Compound III LNPs buffered with Tris and stored either at 5° C. or 20° C.): around 10%
SMILES: CCCCCCCCCCCOC(=O)CCCCCN(CCO)CCCCCCCC(=O)OC(CCCCCCCC)CCCCCCCC [Compound III]
percentage IG detected (RNA [2]; mRNA and Compound III treated with higher concentrations of sodium metabisulfite (KDS), removed by dialysis with 20 mM Tris, t=0 h and 24 hours): reduced when treated with higher concentrations | percentage of IG, Tris versus PBS (RNA [3]; Compound III LNPs, 100 mM Tris-HCl pH 7.4 (5° C., −20° C.) versus 1×PBS (5° C.)): lower in binary mixtures buffered with Tris compared to binary mixtures buffered with PBS

levels of IG (RNA [1]; 25° C., after 18 hours): reduced levels of IG
SMILES: O[C@H](CS)[C@H](O)CS [DTT, dithiothreitol]

SMILES: Clc1ccc(C(c2ccc(Cl)cc2)C(Cl)(Cl)Cl)cc1 [DDT, dichlorodiphenyltrichloroethane]
levels of IG (RNA [1]; 25° C., after 18 hours): reduced levels of IG

levels of IG (RNA [1]; 25° C., after 18 hours): reduced levels of IG
SMILES: CC(=O)N[C@@H](CS)C(=O)O [N-acetyl cysteine]
initial rate of IG formation (RNA [1]): effective at eliminating the fast initial rate of IG formation

levels of IG (RNA [1]; 25° C., after 18 hours): reduced levels of IG
SMILES: N[C@@H](CCS)C(=O)O [homo cysteine, homocysteine]

SMILES: O=C([O-])CS.[Na+] [sodium thioglycolate]
levels of IG (RNA [1]; 25° C., after 18 hours): reduced levels of IG

IG (RNA [2]; control binary mixtures of RNA and Compound VI, after 1 day): ~55% | IG (RNA [2]; control binary mixtures of RNA and Compound VI, after 2 days): ~70% | IG (RNA [2]; control binary mixtures of RNA and Compound VI, after 13 days): ~80%
SMILES: CCCCCCCCCN(CCCCCCCCC)CCN(CCCCCCCCC)CC(=O)N1CCN(C(=O)CN(CCCCCCCCC)CCCCCCCCC)CC1 [Compound VI]
percentage of IG, Tris versus PBS (RNA [3]; Compound VI LNPs stored at 5° C., 20 mM Tris, 8% sucrose, pH 8 versus 1×PBS, pH 7.2): lower in binary mixtures buffered with Tris compared to binary mixtures buffered with PBS

SMILES: O=S([O-])([O-])=S.[Na+].[Na+] [sodium thiosulfate]
levels of IG (RNA [1]; 25° C., after 18 hours): reduced levels of IG

levels of IG (RNA [1]; 25° C., after 18 hours): reduced levels of IG
SMILES: O[C@H](CS)[C@@H](O)CS [DTE, dithioerythritol]

levels of IG (RNA [1]; 25° C., after 18 hours): reduced levels of IG
SMILES: [BH4-].[Na+] [sodium borohydrate]

levels of IG (RNA [1]; 25° C., after 18 hours): reduced levels of IG
SMILES: O=C(O)CCCC[C@@H]1CCSS1 (racemic) [lipoic acid]

SMILES: O=S([O-])S(=O)(=O)[O-].[Na+].[Na+] [sodium metabisulfite]
initial rate of IG formation (RNA [1]): effective at eliminating the fast initial rate of IG formation

levels of IG (RNA [1]; 25° C., after 18 hours): reduced levels of IG
SMILES: N[C@@H](CCC(=O)N[C@@H](CS)C(=O)NCC(=O)O)C(=O)O [glutathione]

SMILES: O=C(O)CCP(CCC(=O)O)CCC(=O)O [TCEP, tris(2-carboxyethyl)phosphine]
levels of IG (RNA [1]; 25° C., after 18 hours): reduced levels of IG
